According to the supplement of paper PMC4862054:

Columns and labels:
Conditions in all cases: incubation time: 72 h
BT-549 [1] = assay: normalised viability (% of control), CellTiter-Blue; higher = more viable cells (about 100 = DMSO control)
In short: (§1)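 Each value is normalised viability at a single listed concentration of the series. Breast cancer cell lines in 384-well plates were incubated 72 h with compound and read by CellTiter-Blue fluorescence at 560/590 nm, with vehicle set to 100 and a positive kill control to 0 on every plate.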

CAL-148 [2] = assay: as above
In short: as §1

MDA-MB-453 [3] = assay: as above
In short: as §1

MFM-223 [4] = assay: as above
In short: as §1

BT-474 = assay: as above
In short: as §1

BT-549 [5] = assay: as above; remark: listed apart in the source
In short: as §1

CAL-120 [6] = assay: as above
In short: as §1

CAL-148 [7] = assay: as above; remark: listed apart in the source
In short: as §1

CAL-51 = assay: as above
In short: as §1

CAL-85-1 = assay: as above
In short: as §1

DU-4475 = assay: as above
In short: as §1

HCC1143 = assay: as above
In short: as §1

HCC1599 = assay: as above
In short: as §1

HCC1937 = assay: as above
In short: as §1

HDQ-P1 = assay: as above
In short: as §1

Hs578T = assay: as above
In short: as §1

MDA-MB-231 = assay: as above
In short: as §1

MDA-MB-436 = assay: as above
In short: as §1

MDA-MB-453 [8] = assay: as above; remark: listed apart in the source
In short: as §1

MDA-MB-468 = assay: as above
In short: as §1

MFM-223 [9] = assay: as above; remark: listed apart in the source
In short: as §1

SK-BR-3 = assay: as above
In short: as §1

CAL-120 [10] = assay: drug sensitivity score (DSS), CellTox Green (DSS (AUC-based score)); higher = stronger drug effect (viability inhibition or cytotoxicity); extreme values may be limits of the assay
In short: (§2)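 Plates with 384 wells held compound at 5 concentrations in 10-fold steps over a 10,000-fold range specific to each compound. Breast cancer cell lines were added in 20 µl suspension and incubated 72 h, then read for CellTox Green and CellTiter-Glo signals, with each plate normalised to 0.1 % DMSO and a positive kill control. The drug sensitivity score is based on the area under the fitted dose-response curve.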

CAL-148 [11] = assay: as above
In short: as §2

CC1(C)NC(=O)N(c2ccc([N+](=O)[O-])c(C(F)(F)F)c2)C1=O [Nilutamide]
Conditions	normalised viability [%]
BT-474, 10 nM	122
BT-474, 1000 nM	128
BT-474, 10000 nM	110
BT-549 [1], 100 nM	99.6
BT-549 [5], 10 nM	97.2
BT-549 [5], 1000 nM	85.5
BT-549 [5], 10000 nM	97.2
CAL-51, 3 nM	101
CAL-51, 30 nM	96.1
CAL-51, 100 nM	94.6
CAL-85-1, 3 nM	98
CAL-85-1, 30 nM	88.9
CAL-85-1, 100 nM	100
CAL-120 [6], 10 nM	95.6
CAL-120 [6], 1000 nM	90.1
CAL-120 [6], 10000 nM	116
CAL-148 [2], 10 nM	95
CAL-148 [7], 3 nM	95.5
CAL-148 [7], 30 nM	100
CAL-148 [7], 100 nM	97
DU-4475, 3 nM	88
DU-4475, 30 nM	108
DU-4475, 100 nM	90.7
HCC1143, 10 nM	89.3
HCC1143, 1000 nM	113
HCC1143, 10000 nM	94
HCC1599, 10 nM	97.9
HCC1599, 1000 nM	82.5
HCC1599, 10000 nM	113
HCC1937, 10 nM	105
HCC1937, 1000 nM	87.3
HCC1937, 10000 nM	94.7
HDQ-P1, 3 nM	124
HDQ-P1, 30 nM	120
HDQ-P1, 100 nM	112
Hs578T, 10 nM	108
Hs578T, 1000 nM	139
Hs578T, 10000 nM	119
MDA-MB-231, 10 nM	102
MDA-MB-231, 1000 nM	92.2
MDA-MB-231, 10000 nM	109
MDA-MB-436, 10 nM	113
MDA-MB-436, 1000 nM	110
MDA-MB-436, 10000 nM	102
MDA-MB-453 [3], 10 nM	112
MDA-MB-453 [8], 3 nM	120
MDA-MB-453 [8], 30 nM	87.5
MDA-MB-453 [8], 100 nM	109
MDA-MB-468, 10 nM	115
MDA-MB-468, 1000 nM	103
MDA-MB-468, 10000 nM	103
MFM-223 [4], 100 nM	92.4
MFM-223 [9], 10 nM	108
MFM-223 [9], 1000 nM	98.4
MFM-223 [9], 10000 nM	85.8
SK-BR-3, 10 nM	100
SK-BR-3, 1000 nM	104
SK-BR-3, 10000 nM	132

Conditions	drug sensitivity score
CAL-120 [10]	0
CAL-148 [11]	0

Cn1c(Nc2ccc(C(F)(F)F)cc2)nc2cc(Oc3ccnc(-c4ncc(C(F)(F)F)[nH]4)c3)ccc21 [RAF265]
Conditions	normalised viability [%]
BT-474, 1 nM	118
BT-474, 100 nM	107
BT-474, 1000 nM	96.4
BT-549 [1], 10 nM	84.1
BT-549 [5], 1 nM	87.3
BT-549 [5], 100 nM	80.8
BT-549 [5], 1000 nM	78.5
CAL-51, 0.3 nM	91.4
CAL-51, 3 nM	94.2
CAL-51, 10 nM	99.1
CAL-85-1, 0.3 nM	87.4
CAL-85-1, 3 nM	83.3
CAL-85-1, 10 nM	89.8
CAL-120 [6], 1 nM	88.5
CAL-120 [6], 100 nM	64.5
CAL-120 [6], 1000 nM	51.3
CAL-148 [2], 1 nM	94
CAL-148 [7], 0.3 nM	89.4
CAL-148 [7], 3 nM	87.1
CAL-148 [7], 10 nM	89.2
DU-4475, 0.3 nM	102
DU-4475, 3 nM	95.6
DU-4475, 10 nM	116
HCC1143, 1 nM	90.1
HCC1143, 100 nM	78
HCC1143, 1000 nM	72.5
HCC1599, 1 nM	104
HCC1599, 100 nM	106
HCC1599, 1000 nM	106
HCC1937, 1 nM	103
HCC1937, 100 nM	78.7
HCC1937, 1000 nM	62
HDQ-P1, 0.3 nM	95.3
HDQ-P1, 3 nM	94.6
HDQ-P1, 10 nM	79.7
Hs578T, 1 nM	97.8
Hs578T, 100 nM	90.9
Hs578T, 1000 nM	78.3
MDA-MB-231, 1 nM	110
MDA-MB-231, 100 nM	86.1
MDA-MB-231, 1000 nM	53.8
MDA-MB-436, 1 nM	120
MDA-MB-436, 100 nM	79.6
MDA-MB-436, 1000 nM	83.6
MDA-MB-453 [3], 1 nM	100
MDA-MB-453 [8], 0.3 nM	99.2
MDA-MB-453 [8], 3 nM	109
MDA-MB-453 [8], 10 nM	98.3
MDA-MB-468, 1 nM	110
MDA-MB-468, 100 nM	94.2
MDA-MB-468, 1000 nM	80.1
MFM-223 [4], 10 nM	88
MFM-223 [9], 1 nM	94.9
MFM-223 [9], 100 nM	74.7
MFM-223 [9], 1000 nM	43.8
SK-BR-3, 1 nM	96.2
SK-BR-3, 100 nM	96.3
SK-BR-3, 1000 nM	106

Conditions	drug sensitivity score
CAL-120 [10]	0
CAL-148 [11]	0
